Assay results as given in PubChem BioAssay (NCI).
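These data come from cells grown in 96-well plates and exposed to compound for 48 hours at five concentrations. GI50 marks 50% less growth. TGI is the concentration that stops growth completely.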

What was measured:
Experiment in all cases: NCI tumour cell line growth inhibition, 48 h
SK-MEL-2 melanoma = test system: SK-MEL-2 melanoma
MDA-MB-435 = test system: MDA-MB-435
DU-145 prostate = test system: DU-145 prostate
PC-3 prostate = test system: PC-3 prostate
K-562 leukemia = test system: K-562 leukemia
NCI-H226 lung = test system: NCI-H226 lung
ACHN renal = test system: ACHN renal
RXF 393 renal = test system: RXF 393 renal
OVCAR-3 ovarian = test system: OVCAR-3 ovarian
786-0 renal = test system: 786-0 renal
HOP-62 NSCLC = test system: HOP-62 NSCLC
MALME-3M melanoma = test system: MALME-3M melanoma
SR leukemia = test system: SR leukemia
SNB-75 CNS = test system: SNB-75 CNS
HS 578T breast = test system: HS 578T breast
IGROV1 ovarian = test system: IGROV1 ovarian
NCI-H460 lung = test system: NCI-H460 lung
SF-539 CNS = test system: SF-539 CNS
LOX IMVI melanoma = test system: LOX IMVI melanoma
NCI-H23 lung = test system: NCI-H23 lung
SF-295 CNS = test system: SF-295 CNS
KM12 colon = test system: KM12 colon
M14 melanoma = test system: M14 melanoma
EKVX NSCLC = test system: EKVX NSCLC
HT29 colon = test system: HT29 colon
BT-549 breast = test system: BT-549 breast
SW-620 colon = test system: SW-620 colon
HCT-116 colon = test system: HCT-116 colon
CCRF-CEM leukemia = test system: CCRF-CEM leukemia
HL-60(TB) leukemia = test system: HL-60(TB) leukemia
COLO 205 colon = test system: COLO 205 colon
SK-MEL-28 melanoma = test system: SK-MEL-28 melanoma
SF-268 CNS = test system: SF-268 CNS
HCT-15 colon = test system: HCT-15 colon
OVCAR-8 ovarian = test system: OVCAR-8 ovarian
SNB-19 CNS = test system: SNB-19 CNS
OVCAR-5 ovarian = test system: OVCAR-5 ovarian
MOLT-4 leukemia = test system: MOLT-4 leukemia
SK-MEL-5 melanoma = test system: SK-MEL-5 melanoma
UACC-62 melanoma = test system: UACC-62 melanoma
UO-31 renal = test system: UO-31 renal
NCI/ADR-RES ovarian = test system: NCI/ADR-RES ovarian
A498 renal = test system: A498 renal
TK-10 renal = test system: TK-10 renal
RPMI-8226 leukemia = test system: RPMI-8226 leukemia
UACC-257 melanoma = test system: UACC-257 melanoma
SK-OV-3 ovarian = test system: SK-OV-3 ovarian
MCF7 breast = test system: MCF7 breast
T-47D breast = test system: T-47D breast
OVCAR-4 ovarian = test system: OVCAR-4 ovarian
A549 NSCLC = test system: A549 NSCLC
NCI-H522 lung = test system: NCI-H522 lung
CAKI-1 renal = test system: CAKI-1 renal
HCC-2998 colon = test system: HCC-2998 colon
MDA-MB-231 breast = test system: MDA-MB-231 breast
U251 CNS = test system: U251 CNS
HOP-92 NSCLC = test system: HOP-92 NSCLC

Cc1c2c(n(C)c1C)C(=O)C1C(C2=O)C2(C)c3ccccc3C1(C)c1ccccc12 (configuration not stated)
TGI (SK-MEL-2 melanoma): > 100 µM
TGI (MDA-MB-435): > 100 µM
TGI (DU-145 prostate): > 100 µM
TGI (PC-3 prostate): > 100 µM
TGI (K-562 leukemia): > 100 µM
TGI (NCI-H226 lung): > 100 µM
TGI (ACHN renal): > 100 µM
TGI (RXF 393 renal): > 100 µM
TGI (OVCAR-3 ovarian): > 100 µM
TGI (786-0 renal): > 100 µM
TGI (HOP-62 NSCLC): > 100 µM
TGI (MALME-3M melanoma): > 100 µM
TGI (SR leukemia): > 100 µM
TGI (SNB-75 CNS): > 100 µM
TGI (HS 578T breast): > 100 µM
TGI (IGROV1 ovarian): > 100 µM
TGI (NCI-H460 lung): > 100 µM
TGI (SF-539 CNS): > 100 µM
TGI (LOX IMVI melanoma): > 100 µM
TGI (NCI-H23 lung): > 100 µM
TGI (SF-295 CNS): > 100 µM
TGI (KM12 colon): > 100 µM
TGI (M14 melanoma): > 100 µM
TGI (EKVX NSCLC): > 100 µM
TGI (HT29 colon): > 100 µM
TGI (BT-549 breast): > 100 µM
TGI (SW-620 colon): > 100 µM
TGI (HCT-116 colon): > 100 µM
TGI (CCRF-CEM leukemia): > 100 µM
TGI (HL-60(TB) leukemia): > 100 µM
TGI (COLO 205 colon): > 100 µM
TGI (SK-MEL-28 melanoma): > 100 µM
TGI (SF-268 CNS): > 100 µM
TGI (HCT-15 colon): > 100 µM
TGI (OVCAR-8 ovarian): > 100 µM
TGI (SNB-19 CNS): > 100 µM
TGI (OVCAR-5 ovarian): > 100 µM
TGI (MOLT-4 leukemia): > 100 µM
TGI (SK-MEL-5 melanoma): > 100 µM
TGI (UACC-62 melanoma): > 100 µM
TGI (UO-31 renal): > 100 µM
TGI (NCI/ADR-RES ovarian): > 100 µM
TGI (A498 renal): > 100 µM
TGI (TK-10 renal): > 100 µM
TGI (RPMI-8226 leukemia): > 100 µM
TGI (UACC-257 melanoma): > 100 µM
TGI (SK-OV-3 ovarian): > 100 µM
TGI (MCF7 breast): > 100 µM
TGI (T-47D breast): > 100 µM

COc1ccc(/C=C/C2C(C#N)=C(N)OC3=C2C(=O)CCC3)cc1 (configuration not stated)
GI50 (SK-MEL-2 melanoma): 38.5 µM
TGI (SK-MEL-2 melanoma): > 100 µM
GI50 (OVCAR-4 ovarian): 22.8 µM
TGI (OVCAR-4 ovarian): 66.5 µM
GI50 (MDA-MB-435): 18.4 µM
TGI (MDA-MB-435): 61.3 µM
GI50 (DU-145 prostate): 15.9 µM
TGI (DU-145 prostate): 33.7 µM
GI50 (K-562 leukemia): 24.4 µM
TGI (K-562 leukemia): > 100 µM
GI50 (A549 NSCLC): 32.4 µM
TGI (A549 NSCLC): 97 µM
GI50 (NCI-H226 lung): 15 µM
TGI (NCI-H226 lung): 34 µM
GI50 (ACHN renal): 17.7 µM
TGI (ACHN renal): 33.7 µM
GI50 (RXF 393 renal): 18.7 µM
TGI (RXF 393 renal): 35.9 µM
GI50 (OVCAR-3 ovarian): 34 µM
TGI (OVCAR-3 ovarian): > 100 µM
GI50 (HOP-62 NSCLC): 29.6 µM
TGI (HOP-62 NSCLC): 62.7 µM
GI50 (MALME-3M melanoma): 31.9 µM
TGI (MALME-3M melanoma): 87.1 µM
GI50 (SR leukemia): 2710 nM
TGI (SR leukemia): 16 µM
GI50 (SNB-75 CNS): 19.9 µM
TGI (SNB-75 CNS): 37.4 µM
GI50 (HS 578T breast): 63 µM
TGI (HS 578T breast): > 100 µM
GI50 (IGROV1 ovarian): 22 µM
TGI (IGROV1 ovarian): 41.3 µM
GI50 (NCI-H460 lung): 16.9 µM
TGI (NCI-H460 lung): 35 µM
GI50 (SF-539 CNS): 31.3 µM
TGI (SF-539 CNS): 80.1 µM
GI50 (NCI-H522 lung): 18.3 µM
TGI (NCI-H522 lung): 38.9 µM
GI50 (LOX IMVI melanoma): 11.4 µM
TGI (LOX IMVI melanoma): 23.4 µM
GI50 (NCI-H23 lung): 20.1 µM
TGI (NCI-H23 lung): 47.7 µM
GI50 (SF-295 CNS): 21.5 µM
TGI (SF-295 CNS): 50.1 µM
GI50 (CAKI-1 renal): 40.8 µM
TGI (CAKI-1 renal): 97.3 µM
GI50 (KM12 colon): 13.5 µM
TGI (KM12 colon): 28.6 µM
GI50 (HCC-2998 colon): 18.2 µM
TGI (HCC-2998 colon): 32.9 µM
GI50 (MDA-MB-231 breast): 2540 nM
TGI (MDA-MB-231 breast): 8.79 µM
GI50 (U251 CNS): 12.5 µM
TGI (U251 CNS): 25 µM
GI50 (M14 melanoma): 20.8 µM
TGI (M14 melanoma): 49.6 µM
GI50 (EKVX NSCLC): 38 µM
TGI (EKVX NSCLC): > 100 µM
GI50 (HT29 colon): 7.9 µM
TGI (HT29 colon): 20.2 µM
GI50 (BT-549 breast): 31.9 µM
TGI (BT-549 breast): > 100 µM
GI50 (HOP-92 NSCLC): 23.6 µM
TGI (HOP-92 NSCLC): 46.9 µM
GI50 (SW-620 colon): 29.7 µM
TGI (SW-620 colon): > 100 µM
GI50 (HCT-116 colon): 7.39 µM
TGI (HCT-116 colon): 20 µM
GI50 (CCRF-CEM leukemia): 4.05 µM
TGI (CCRF-CEM leukemia): 16.6 µM
GI50 (HL-60(TB) leukemia): 5.28 µM
TGI (HL-60(TB) leukemia): 63.2 µM
GI50 (COLO 205 colon): 21.1 µM
TGI (COLO 205 colon): 41.2 µM
GI50 (SK-MEL-28 melanoma): 17.9 µM
TGI (SK-MEL-28 melanoma): 35.3 µM
GI50 (SF-268 CNS): 13.8 µM
TGI (SF-268 CNS): 30.5 µM
GI50 (HCT-15 colon): 21.4 µM
TGI (HCT-15 colon): > 100 µM
GI50 (OVCAR-8 ovarian): 21.2 µM
TGI (OVCAR-8 ovarian): > 100 µM
GI50 (SNB-19 CNS): 19.8 µM
TGI (SNB-19 CNS): 43.1 µM
GI50 (OVCAR-5 ovarian): 18.8 µM
TGI (OVCAR-5 ovarian): 34.5 µM
GI50 (MOLT-4 leukemia): 4.23 µM
TGI (MOLT-4 leukemia): 19.7 µM
GI50 (SK-MEL-5 melanoma): 18.1 µM
TGI (SK-MEL-5 melanoma): 32.8 µM
GI50 (UO-31 renal): 18.2 µM
TGI (UO-31 renal): 33.1 µM
GI50 (NCI/ADR-RES ovarian): 33.9 µM
TGI (NCI/ADR-RES ovarian): > 100 µM
GI50 (A498 renal): 22.6 µM
TGI (A498 renal): 41 µM
GI50 (TK-10 renal): 26.9 µM
TGI (TK-10 renal): 63.8 µM
GI50 (RPMI-8226 leukemia): 2140 nM
TGI (RPMI-8226 leukemia): 5.18 µM
GI50 (UACC-257 melanoma): 23 µM
TGI (UACC-257 melanoma): 49.5 µM
GI50 (SK-OV-3 ovarian): 25.1 µM
TGI (SK-OV-3 ovarian): 77.6 µM
GI50 (MCF7 breast): 12.1 µM
TGI (MCF7 breast): 26.4 µM
GI50 (T-47D breast): 29.4 µM
TGI (T-47D breast): > 100 µM
